Measured values: the supplement of paper PMC10307832

Tests used:
Assay in all cases: relative viability (nuclei count vs DMSO), 5 days (fraction); higher = more cells survive
XMD13-2 + OSI-027 = compound: C1CC1C(=O)NC2=NNC3=C2C=CC(=C3)C4=CC(=CC=C4)C(=O)NC5CC5 [XMD13-2] + COc1cccc2cc(-c3nc([C@H]4CC[C@H](C(=O)O)CC4)n4ncnc(N)c34)[nH]c12 [OSI-027] (partner 0.5 µM)
Method in brief: (§1)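 One day after seeding in 1536-well plates, lung cancer cell lines were dosed by pin tool. Dosing was either single-drug or a fixed anchor-drug dose plus five library-drug doses (not always all listed) in √10 steps. After 5 days, nuclei were stained in one fix-and-stain step and counted on 4× images, and relative viability is the nuclei count of treated wells over that of vehicle wells, given as the median of duplicate plates.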

ALW-II-49-7 + Foretinib = compound: Cc1ccc(C(=O)Nc2cccc(C(F)(F)F)c2)cc1Nc1cncc(C(N)=O)c1 [ALW-II-49-7] + COc1cc2c(Oc3ccc(NC(=O)C4(C(=O)Nc5ccc(F)cc5)CC4)cc3F)ccnc2cc1OCCCN1CCOCC1 [Foretinib] (partner 0.25 µM)
Method in brief: as §1

ALW-II-49-7 + Decitabine = compound: Cc1ccc(C(=O)Nc2cccc(C(F)(F)F)c2)cc1Nc1cncc(C(N)=O)c1 [ALW-II-49-7] + Nc1ncn([C@H]2C[C@H](O)[C@@H](CO)O2)c(=O)n1 [Decitabine] (partner 2 µM)
Method in brief: as §1

Dasatinib + Decitabine = compound: Cc1nc(Nc2ncc(C(=O)Nc3c(C)cccc3Cl)s2)cc(N2CCN(CCO)CC2)n1 [Dasatinib] + Nc1ncn([C@H]2C[C@H](O)[C@@H](CO)O2)c(=O)n1 [Decitabine] (partner 2 µM)
Method in brief: as §1

| Cell Line | relative viability (XMD13-2 + OSI-027; first compound 0.05 µM) | relative viability (XMD13-2 + OSI-027; first compound 0.1581 µM) | relative viability (XMD13-2 + OSI-027; first compound 0.5 µM) | relative viability (XMD13-2 + OSI-027; first compound 1.581 µM) | relative viability (XMD13-2 + OSI-027; first compound 5 µM) | relative viability (ALW-II-49-7 + Foretinib; first compound 0.08 µM) | relative viability (ALW-II-49-7 + Foretinib; first compound 0.253 µM) | relative viability (ALW-II-49-7 + Foretinib; first compound 0.8 µM) | relative viability (ALW-II-49-7 + Foretinib; first compound 2.53 µM) | relative viability (ALW-II-49-7 + Foretinib; first compound 8 µM) | relative viability (ALW-II-49-7 + Decitabine; first compound 0.08 µM) | relative viability (ALW-II-49-7 + Decitabine; first compound 0.253 µM) | relative viability (ALW-II-49-7 + Decitabine; first compound 0.8 µM) | relative viability (ALW-II-49-7 + Decitabine; first compound 2.53 µM) | relative viability (ALW-II-49-7 + Decitabine; first compound 8 µM) | relative viability (Dasatinib + Decitabine; first compound 0.005 µM) | relative viability (Dasatinib + Decitabine; first compound 0.01581 µM) | relative viability (Dasatinib + Decitabine; first compound 0.05 µM) | relative viability (Dasatinib + Decitabine; first compound 0.1581 µM) | relative viability (Dasatinib + Decitabine; first compound 0.5 µM) |
| --- | --- | --- | --- | --- | --- | --- | --- | --- | --- | --- | --- | --- | --- | --- | --- | --- | --- | --- | --- | --- |
| NCI-H2405 | 0.632 | 0.543 | 0.587 | 0.676 | 0.598 | 1.03 | 1.06 | 0.998 | 0.847 | 0.895 | 0.699 | 0.751 | 0.75 | 0.685 | 0.722 | 0.693 | 0.489 | 0.45 | 0.293 | 0.219 |
| NCI-H3122 | 1.02 | 0.924 | 1.02 | 0.917 | 0.7 | 1.06 | 0.978 | 0.96 | 1.03 | 0.931 | 0.42 | 0.392 | 0.585 | 0.469 | 0.42 | 0.503 | 0.476 | 0.536 | 0.428 | 0.33 |
| PC-3 [JPC-3] | 0.831 | 0.663 | 0.746 | 0.707 | 0.754 | 0.995 | 1.09 | 1.01 | 1.01 | 1.02 | 0.785 | 0.95 | 0.771 | 0.814 | 0.873 | 0.799 | 0.802 | 0.81 | 0.755 | 0.623 |
| PC-14 | 1.04 | 0.832 | 0.98 | 0.842 | 0.971 | 0.935 | 0.634 | 0.841 | 0.924 | 0.89 | 0.247 | 0.22 | 0.218 | 0.266 | 0.222 | 0.301 | 0.258 | 0.215 | 0.186 | 0.0693 |
| RERF-LC-KJ | 0.655 | 0.662 | 0.624 | 0.564 | 0.452 | 0.84 | 0.874 | 0.941 | 0.933 | 0.902 | 0.694 | 0.783 | 0.729 | 0.732 | 0.611 | 0.701 | 0.621 | 0.552 | 0.629 | 0.627 |
| SK-LU-1 | 0.382 | 0.375 | 0.426 | 0.311 | 0.389 | 0.894 | 0.895 | 0.923 | 0.797 | 0.592 | 0.658 | 0.61 | 0.489 | 0.639 | 0.5 | 0.609 | 0.449 | 0.437 | 0.282 | 0.24 |
| SK-MES-1 | 0.597 | 0.571 | 0.618 | 0.564 | 0.673 | 0.834 | 0.687 | 0.737 | 0.977 | 0.831 | 0.354 | 0.35 | 0.473 | 0.445 | 0.398 | 0.409 | 0.364 | 0.265 | 0.169 | 0.136 |
| SW 900 | 0.654 | 0.707 | 0.686 | 0.457 | 0.635 | 0.943 | 0.866 | 0.96 | 0.913 | 0.831 | 0.506 | 0.487 | – | 0.552 | 0.661 | 0.46 | 0.39 | 0.398 | 0.413 | 0.23 |
| SW 1573 | 0.691 | 0.581 | 0.647 | 0.497 | 0.36 | 0.92 | 0.729 | 0.945 | 1.19 | 1.02 | 0.442 | 0.601 | 0.654 | 0.44 | 0.423 | 0.431 | 0.428 | 0.381 | 0.288 | 0.405 |
